Measurements published in patent publication US20240299353A1, “COMPOSITIONS AND METHODS FOR TREATING […] 5-MEO-DMT” (Alvarius Pharmaceuticals Ltd., priority 2021, published 2024).

Tests used:
[1] = test system: primary hippocampal neurons; assay: Structural plasticity of cultured hippocampal neurons, Sholl analysis; type: cell-based, rat; details: for normalised AUC of the Sholl plot (dendritic arbor complexity): 24 h 5-MeO-DMT (20 μM) or cocaine (25 μM) alone, vs control; for maximum number of intersections (Nmax): FIG. 38C, all treatment groups
From the text: Primary Culture—Primary hippocampal neurons were derived from the hippocampi of embryonic day 18 (E18) rat embryos, as described previously (Seibenhener, M. L. & M. W. Wooten (2012) Isolation and Culture of Hippocampal Neurons from Prenatal Mice. Journal of Visualized Experiments: JoVE, 3634). Briefly, the brains were removed from the skull and stored in cooled Hank's Balanced Salt Solution (HBSS). The hippocampus was isolated under a dissection microscope and digested using 0.05% Trypsin (Gibco) in HBSS for 10 mins after which trypsinisation was stopped by the addition of 2% foetal calf serum (Gibco). Isolated cells were suspended in plating media and viable cells were counted with a haemocytometer using trypan blue (Gibco) staining. Cells were plated at a density of 1×10^6 cells/well on 12-well plates coated with 0.02% Poly-DL-ornithine hydrobromide (Sigma). After plating, cells were incubated at 37° C. in humidified air with 5% C02. Half medium changes were performed every 2-3 days with L-glutamic acid no longer included in the media after 3 DIV.
Immunocytochemistry—Primary hippocampal neurons grown on 18 mm diameter glass coverslips were fixed in 70% ethanol (EtOH) for 20 mins. After fixing, cells were permeabilised in 0.2% Triton X-100 (Thermo Fisher) in PBS and washed in PBS. Cells were blocked in 1% BSA (Sigma) in PBS for 45 mins. Following blocking, cells were incubated with primary antibodies in 5% BSA and 5% normal goat serum (Agilent) for 2 hours in a humidity chamber at room temperature or overnight at 4° C. Cells were rinsed in PBS and incubated with 1 ug/ml 4′,6-Diamidine-2′-phenylindole dihydrochloride (DAPI) (Thermo Fisher) for 10 mins. Coverslips were mounted on microscope slides using mounting medium containing mowiol 4-88 (Sigma), stored in the dark at 4° C. and were imaged within 7 days of mounting. Images were captured on a Zeiss AxioImager M1 fluorescent microscope using a x40 oil immersion lens. 10 images were taken per coverslip and images were analyzed by a customized R script (Appendix I) using EBImage by Bioconductor Ver 3.7. Briefly, DAPI staining was used as a nuclear reference with a threshold of a minimal radius and fluorescent intensity implemented to differentiate DAPI-labelled nuclei against cell debris or non-specific binding. A watershed command in the R script was used to ensure segmentation and identification of nuclei which may be tightly clustered as distinct objects. The nuclei were dilated using kernel expansion to designate the soma region surrounding the nucleus. A distance map was generated for each image which calculates the distance of each foreground pixel (white) to the nearest background pixel (black). Protein expression was measured as the average pixel fluorescence intensity for each cell in each channel. In all experiments cells were stained with an antibody for NeuN, a protein specifically expressed in neurons, to localise protein changes to the neuronal or non-neuronal cellular populations in the culture. Proteins assessed by ICC were 5-HT1AR (FIG. 7A), 5-HT2AR (FIG. 7B).
Primary hippocampal cultures were grown on 18 mm glass coverslips at a density of 1×10^6 cells as described. On 3 DIV all cells underwent a full medium change. […] On 4 DIV, all cells underwent a second full medium change. Cells in the combination group were treated with 2 μM 5-MeO-DMT for a further 24 hours with all other groups beginning a 24-hour treatment. After treatment was completed the cells were fixed and processed as described below.
After termination of drug treatment coverslips were processed and imaged as outlined for immunocytochemistry. In all instances NeuN antibody staining was used to visualize projections from the cell body. Images were analyzed using the Simple Neurite Tracer and Sholl analysis plug-ins for ImageJ Fiji. For the Sholl analysis circle radii of 2 μm increments were used. All images were taken and analyzed by an experimenter blinded to treatment conditions. […]

rats = assay: Pre-pulse inhibition of startle; type: in vivo; details: for treatment effects on PPI: cohort 1 (20 mg/kg 5-MeO-DMT)
Protocol: In this instance the animals were 9 weeks old at the initiation of drug exposures and we selected just the high (20 mg/kg) dose of 5-MeO-DMT from the molecular study. […] Due to the number of behavioral paradigms to be completed by each animal we divided the study into two cohorts staggered by two weeks with 8 animals coming from each cohort to make up the 16 animals for each treatment group. 23 hours after 5-MeO-DMT administration the animals were introduced to the open field arena where they were allowed to freely explore the area for 5 mins. Following the open field test (OFT) animals were returned to their home cage for 2 hours before beginning either the elevated plus maze (EPM) or pre-pulse inhibition (PPI) testing. 24 hours after completing the OFT animals were returned to the chamber for the first session in novel object (NO1) testing. The animals were returned to their home cage for 2 hours before beginning the EPM or PPI test. 24 hours after NO1 the animals returned to the open field chamber for the second session in novel object (N02) testing. After completing N02 animals were returned to their home cage for 2 hours before they underwent the forced swim test (FST) pre-test. 24 hours later the animals were returned to the FS cylinders for the FST. Upon completion of the FST all animals were euthanized. A timeline of this experimental cohort is described in FIG. 8A.
The experiment was conducted as described for cohort 1 for the first 13 days of injections. There are a number of notable differences in experimental procedures between the two cohorts of animals to be highlighted. […] Finally, the dose of 5-MeO-DMT was reduced to 10 mg/kg. The order and timing of all the behavioral paradigms were kept constant between the cohorts. A timeline of this experimental cohort is described in FIG. 8B. Additionally, 5-MeO-DMT administrations were staggered so animals could be observed for the duration of acute drug effects and to ensure recovery prior to the next animal being injected. The typical symptoms of psychedelic drug administration outlined above were reproduced in all animals administered 5-MeO-DMT.
The PPI protocol employed was based on a procedure previously described by Geyer and colleagues (Geyer, M. A., K. Krebs-Thomson, D. L. Braff & N. R. Swerdlow (2001) Pharmacological studies of prepulse inhibition models of sensorimotor gating deficits in schizophrenia: a decade in review. Psychopharmnacology, 156, 117-154). Each rat was restrained in an appropriately sized cylindrical holder that was placed on a movement-sensitive platform and maintained in a soundproof chamber. The animal was allowed to habituate to a white noise background of 70 dB for 5 mins before receiving 5 20 ms startle trials of 120 dB separated by randomized intervals of 10-20 s. Immediately thereafter, each rat received 5 separate presentations with one of the pre-pulse stimuli of 72, 76, 80, or 84 dB followed 100 ms later by the 120 dB acoustic startle stimulus. Each trial was separated by a time interval of 10-20 s. The 4 pre-pulse stimuli were delivered in a randomised manner and included periods in which there was no pre-pulse or startle stimulus. The session terminated with five further startle trials. Randomisation of the sound signals delivered and quantification of the startle movements were recorded from the movement-sensitive platform. Signals were integrated using the software supplied by the manufacturers of equipment hardware (MED-Associates Inc., St. Albans, VT, USA).

Structure (SMILES)	normalised AUC of the Sholl plot (dendritic arbor complexity) ([1]; FIG. 38B)	maximum number of intersections (Nmax) [1]	treatment effects on PPI (rats)	percentage inhibition of startle with change in intensity of the pre-pulse (rats; cohort 1, cocaine alone)	normalised AUC of the Sholl plot ([1]; FIG. 38B, 24 h cocaine followed by 24 h 5-MeO-DMT)	average neurite length ([1]; FIG. 38D, cocaine followed by 5-MeO-DMT)	inhibition of the startle response at 80 dB or 84 dB relative to the 72 dB pre-pulse (rats; cohort 1, 5-Meo-treated animals)	percentage inhibition of startle with change in intensity of the pre-pulse (rats; cohort 1, cocaine+20 mg/kg 5-MeO-DMT combination)	PPI at the 80 dB pre-pulse (rats; cohort 1, combination group relative to control and 5-MeO-DMT alone)	treatment effect on PPI (rats; cohort 2 (10 mg/kg 5-MeO-DMT))	PPI at 84 dB relative to 72 dB pre-pulse (rats; cohort 2, cocaine+10 mg/kg 5-MeO-DMT)
COC(=O)[C@H]1[C@@H](OC(=O)c2ccccc2)C[C@@H]2CC[C@H]1N2C.Cl [cocaine, cocaine hydrochloride, reference compound]	increase dendritic arbor complexity	unchanged between treatment groups	no treatment effects on PPI	no change in percentage inhibition of startle							
COc1ccc2[nH]cc(CCN(C)C)c2c1 [5-MeO-DMT, 5-methoxy-N,N-dimethyltryptamine]	increase dendritic arbor complexity	unchanged between treatment groups	no treatment effects on PPI		increased the normalised AUC relative to either compound alone	significantly increased the average neurite length relative to both the control and cocaine alone treatment groups	significant increase in the inhibition of the startle response	no change in percentage inhibition of startle	significant attenuation of PPI	no treatment effect on PPI	significant increase in PPI
